Experiments:
Type in all cases: functional
[1] = tested on: ACHN; assay: Cytotoxicity against human ACHN cells assessed as cell growth at 10^-8 M after 48 hrs by SRB assay; settings: read-out: Activity
[2] = tested on: HCT-116; assay: Cytotoxicity against human HCT116 cells after 48 hrs by SRB assay; settings: HCT-116, 48 h
[3] = tested on: HL-60(TB); assay: Cytotoxicity against human HL-60(TB) cells after 48 hrs by SRB assay; settings: HL-60, 48 h
[4] = tested on: OVCAR-3; assay: Cytotoxicity against human OVCAR3 cells assessed as cell growth at 10^-7 M after 48 hrs by SRB assay; settings: OVCAR-3, 48 h, read-out: Activity
[5] = tested on: MDA-MB-435; assay: Cytotoxicity against human MDA-MB-435 cells after 48 hrs by SRB assay; settings: MDA-MB-435, 48 h
[6] = tested on: OVCAR-3; assay: Cytotoxicity against human OVCAR3 cells assessed as cell growth at 10^-8 M after 48 hrs by SRB assay; settings: OVCAR-3, 48 h, read-out: Activity
[7] = tested on: Malme-3M; assay: Cytotoxicity against human MALME-3M cells assessed as cell growth at 10^-4 M after 48 hrs by SRB assay; settings: read-out: Activity
[8] = tested on: SK-MEL-28; assay: Cytotoxicity against human SK-MEL-28 cells assessed as cell growth at 10^-8 M after 48 hrs by SRB assay; settings: SK-MEL-28, 48 h, read-out: Activity
[9] = tested on: SF-268; assay: Cytotoxicity against human SF268 cells assessed as cell growth at 10^-7 M after 48 hrs by SRB assay; settings: SF-268, 48 h, read-out: Activity
[10] = Cytotoxicity against human OVCAR4 cells assessed as cell growth at 10^-8 M after 48 hrs by SRB assay; settings: OVCAR-4, 48 h, read-out: Activity
[11] = tested on: SN12C; assay: Cytotoxicity against human SN12C cells assessed as cell growth at 10^-4 M after 48 hrs by SRB assay; settings: read-out: Activity
[12] = Cytotoxicity against human OVCAR4 cells after 48 hrs by SRB assay; settings: OVCAR-4, 48 h
[13] = tested on: SF-295; assay: Cytotoxicity against human SF295 cells assessed as cell growth at 10^-6 M after 48 hrs by SRB assay; settings: SF-295, 48 h, read-out: Activity
[14] = tested on: IGROV-1; assay: Cytotoxicity against human IGROV1 cells assessed as cell growth at 10^-8 M after 48 hrs by SRB assay; settings: IGROV-1, 48 h, read-out: Activity
[15] = tested on: HOP-92; assay: Cytotoxicity against human HOP92 cells assessed as cell growth at 10^-8 M after 48 hrs by SRB assay; settings: HOP-92, 48 h, read-out: Activity
[16] = tested on: U-251; assay: Cytotoxicity against human U251 cells after 48 hrs by SRB assay; settings: U-251, 48 h
[17] = tested on: UACC-62; assay: Cytotoxicity against human UACC62 cells after 48 hrs by SRB assay; settings: UACC-62, 48 h
[18] = tested on: OVCAR-3; assay: Cytotoxicity against human OVCAR3 cells after 48 hrs by SRB assay; settings: OVCAR-3, 48 h
[19] = tested on: M14; assay: Cytotoxicity against human M14 cells assessed as cell growth at 10^-8 M after 48 hrs by SRB assay; settings: M14, 48 h, read-out: Activity
[20] = tested on: HL-60(TB); assay: Cytotoxicity against human HL-60(TB) cells assessed as cell growth at 10^-4 M after 48 hrs by SRB assay; settings: HL-60, 48 h, read-out: Activity
[21] = tested on: COLO 205; assay: Cytotoxicity against human COLO205 cells assessed as cell growth at 10^-7 M after 48 hrs by SRB assay; settings: COLO 205, 48 h, read-out: Activity
[22] = tested on: PC-3; assay: Cytotoxicity against human PC3 cells assessed as cell growth at 10^-7 M after 48 hrs by SRB assay; settings: PC-3, 48 h, read-out: Activity
[23] = tested on: Malme-3M; assay: Cytotoxicity against human MALME-3M cells assessed as cell growth at 10^-7 M after 48 hrs by SRB assay; settings: read-out: Activity
[24] = tested on: SR; assay: Cytotoxicity against human SR cells assessed as cell growth at 10^-6 M after 48 hrs by SRB assay; settings: read-out: Activity
[25] = tested on: TK-10; assay: Cytotoxicity against human TK10 cells assessed as cell growth at 10^-4 M after 48 hrs by SRB assay; settings: TK-10, 48 h, read-out: Activity
[26] = tested on: HOP-92; assay: Cytotoxicity against human HOP92 cells assessed as cell growth at 10^-4 M after 48 hrs by SRB assay; settings: HOP-92, 48 h, read-out: Activity
[27] = tested on: OVCAR-8; assay: Cytotoxicity against human OVCAR8 cells assessed as cell growth at 10^-7 M after 48 hrs by SRB assay; settings: OVCAR-8, 48 h, read-out: Activity
[28] = tested on: IGROV-1; assay: Cytotoxicity against human IGROV1 cells assessed as cell growth at 10^-4 M after 48 hrs by SRB assay; settings: IGROV-1, 48 h, read-out: Activity
[29] = tested on: SF-268; assay: Cytotoxicity against human SF268 cells assessed as cell growth at 10^-6 M after 48 hrs by SRB assay; settings: SF-268, 48 h, read-out: Activity
[30] = Cytotoxicity against human NCI-ADR-RES cells assessed as cell growth at 10^-8 M after 48 hrs by SRB assay; settings: read-out: Activity
[31] = tested on: Malme-3M; assay: Cytotoxicity against human MALME-3M cells assessed as cell growth at 10^-8 M after 48 hrs by SRB assay; settings: read-out: Activity
[32] = tested on: HCC 2998; assay: Cytotoxicity against human HCC2998 cells assessed as cell growth at 10^-6 M after 48 hrs by SRB assay; settings: HCC 2998, 48 h, read-out: Activity
[33] = tested on: NCI-H522; assay: Cytotoxicity against human NCI-H522 cells assessed as cell growth at 10^-4 M after 48 hrs by SRB assay; settings: NCI-H522, 48 h, read-out: Activity
[34] = tested on: TK-10; assay: Cytotoxicity against human TK10 cells assessed as cell growth at 10^-8 M after 48 hrs by SRB assay; settings: TK-10, 48 h, read-out: Activity
[35] = tested on: CCRF-CEM; assay: Cytotoxicity against human CCRF-CEM cells assessed as cell growth at 10^-7 M after 48 hrs by SRB assay; settings: read-out: Activity
[36] = tested on: SR; assay: Cytotoxicity against human SR cells assessed as cell growth at 10^-7 M after 48 hrs by SRB assay; settings: read-out: Activity
[37] = Cytotoxicity against human UO31 cells assessed as cell growth at 10^-4 M after 48 hrs by SRB assay; settings: UO-31, 48 h, read-out: Activity
[38] = tested on: HT-29; assay: Cytotoxicity against human HT-29 cells assessed as growth inhibition at 10 uM after 48 hrs by SRB assay; settings: HT-29, 48 h, read-out: GI

C=CCn1c(C)nc2cc(Nc3nc(Nc4ccc5nc(C)n(CC=C)c5c4)c4ccccc4n3)ccc21
growth at 0.01 µM [1]: 105% | GI50 [2]: 214 nM | GI50 [3]: 1780 nM | TGI [3]: 3650 nM | growth at 0.1 µM [4]: 101% | GI50 [5]: 532 nM | TGI [5]: 1820 nM | growth at 0.01 µM [6]: 100% | growth at 100 µM [7]: -42% | growth at 0.01 µM [8]: 108% | growth at 0.1 µM [9]: 91% | growth at 0.01 µM [10]: 93% | growth at 100 µM [11]: -22% | GI50 [12]: 276 nM | TGI [12]: 730 nM | growth at 1 µM [13]: 78% | growth at 0.01 µM [14]: 103% | growth at 0.01 µM [15]: 85% | GI50 [16]: 177 nM | TGI [16]: 331 nM | GI50 [17]: 1260 nM | TGI [17]: 2590 nM | GI50 [18]: 192 nM | LC50 [18]: 701 nM | TGI [18]: 367 nM | growth at 0.01 µM [19]: 100% | growth at 100 µM [20]: -28% | growth at 0.1 µM [21]: 101% | growth at 0.1 µM [22]: 96% | growth at 0.1 µM [23]: 97% | growth at 1 µM [24]: -23% | growth at 100 µM [25]: -63% | growth at 100 µM [26]: -84% | growth at 0.1 µM [27]: 101% | growth at 100 µM [28]: -43% | growth at 1 µM [29]: 52% | growth at 0.01 µM [30]: 103% | growth at 0.01 µM [31]: 95% | growth at 1 µM [32]: 63% | growth at 100 µM [33]: -24% | growth at 0.01 µM [34]: 96% | growth at 0.1 µM [35]: 107% | growth at 0.1 µM [36]: 89% | growth at 100 µM [37]: -56%

C=CCn1c(C)nc2cc(Nc3nc(NCCO)nc4ccccc34)ccc21
inhibition of growth at 10 µM [38]: 30%

Source: ChEMBL document CHEMBL3112450, “Synthesis and in vitro antitumor evaluation of primary amine substituted quinazoline linked benzimidazole” (Bioorg Med Chem Lett, 2014)
